Earlier results as cited in patent US20100113603A1, “COMBINATION THERAPIES FOR THE TREATMENT OF OBESITY” (priority 2008, published 2010).

Conditions: literature studies of each medication

SMILES | weight loss of body weight for drug compared with placebo
CC(C)CC(N(C)C)C1(c2ccc(Cl)cc2)CCC1 (stereo not shown) [sibutramine] | about 5%
CC(C)(N)Cc1ccccc1 [phentermine] | about 5%
CCN[C@@H](C)Cc1cccc(C(F)(F)F)c1 [dexfenfluramine] | about 5%
CCCCCCCCCCC[C@@H](C[C@@H]1OC(=O)[C@H]1CCCCCC)OC(=O)[C@H](CC(C)C)NC=O [orlistat] | about 5%
